26 molecules from patent US8143290B2, “Chemical compounds 572” (AstraZeneca AB, priority 2006, dated 2012) can be followed below.

The assay deals with T1, recombinant human GR (Homo sapiens, UniProt P04150).
T1 construct: purchased Panvera/Invitrogen P2812 (kit P2893)
T1 sequence (P04150 1-777): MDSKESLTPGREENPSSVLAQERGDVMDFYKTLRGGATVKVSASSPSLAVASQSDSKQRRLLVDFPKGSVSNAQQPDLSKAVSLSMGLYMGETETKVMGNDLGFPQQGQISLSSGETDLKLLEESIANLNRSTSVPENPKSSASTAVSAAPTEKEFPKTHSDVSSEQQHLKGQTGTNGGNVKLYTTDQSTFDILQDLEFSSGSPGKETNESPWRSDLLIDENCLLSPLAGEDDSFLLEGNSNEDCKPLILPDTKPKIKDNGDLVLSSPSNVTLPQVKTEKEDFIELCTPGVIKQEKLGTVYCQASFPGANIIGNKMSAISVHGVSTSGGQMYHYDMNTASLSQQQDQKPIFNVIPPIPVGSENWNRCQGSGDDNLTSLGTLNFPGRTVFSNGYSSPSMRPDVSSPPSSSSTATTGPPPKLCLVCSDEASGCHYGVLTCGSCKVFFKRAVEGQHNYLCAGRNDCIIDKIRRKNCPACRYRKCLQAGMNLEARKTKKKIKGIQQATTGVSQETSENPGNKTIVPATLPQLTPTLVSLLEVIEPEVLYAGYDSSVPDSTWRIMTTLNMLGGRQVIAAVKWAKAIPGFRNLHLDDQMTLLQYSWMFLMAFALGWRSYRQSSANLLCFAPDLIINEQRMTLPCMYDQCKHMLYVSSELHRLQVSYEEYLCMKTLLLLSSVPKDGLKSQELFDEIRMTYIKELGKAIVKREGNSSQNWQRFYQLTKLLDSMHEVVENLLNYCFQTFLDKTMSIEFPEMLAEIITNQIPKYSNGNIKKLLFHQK
Description: Human Glucocorticoid Receptor (GR) Assay, fluorescence polarization. The format is binding. The settings on record: GS Red tracer, incubated 2 h at r.t., XLfit model 205, read-out: GRhuFL_FP_v2 Mean IC50. The protocol:
Human Glucocorticoid Receptor (GR) Assay
The assay is based on a commercial kit from Panvera/Invitrogen (Part number P2893). The assay technology is fluorescence polarization. […] The GR and Stabilizing Peptide reagents are stored at −70° C. while the GS Red is stored at −20° C. Also included in the kit are 1M DTT (Panvera, Part number P2325, stored at −20° C.) and GR Screening buffer 10× (Panvera, Part number P2814, stored at −70° C. initially but once thawed stored at r.t.). Avoid repeated freeze/thaws for all reagents. The GR Screening buffer 10× comprises 100 mM potassium phosphate, 200 mM sodium molybdate, 1 mM EDTA and 20% DMSO.
0% control was 100% DMSO and 100% control was […] Dexamethasone. Background solution (8 μL; assay buffer 10×, Stabilizing Peptide, DTT and ice cold MQ water) was added to the background wells. GS Red solution (7 μL; assay buffer 10×, Stabilizing Peptide, DTT, GS Red and ice cold water) was added to all wells except background wells. GR solution (7 μL; assay buffer 10×, Stabilizing Peptide, DTT, GR and ice cold water) was added to all wells. The plate was sealed and incubated in a dark at r.t. for 2 h.
A general note: Polarisation of emitted light reports the rotation of a fluorescent probe.

As for `C[C@H](NC(=O)CO)[C@H](Oc1ccc2c(cnn2-c2ccc(F)cc2)c1)c1ccc2ccccc2c1` [Example 21, N-[(1R,2S)-1-[1-(4-fluorophenyl)indazol-5-yl]oxy-1-naphthalen-2-yl-propan-2-yl]-2-hydroxy-acetamide], the IC50 (as a rule, the point on the concentration scale where inhibition reaches its midpoint) was 3.2 nM.

For `CCc1cccc([C@@H](Oc2ccc3c(cnn3-c3ccc(F)cc3)c2)[C@H](C)NC(=O)C(F)(F)F)c1` [Example 22, N-[(1R,2S)-1-(3-ethylphenyl)-1-[1-(4-fluorophenyl)indazol-5-yl]oxy-propan-2-yl]-2,2,2-trifluoro-acetamide], the 50% inhibitory concentration (IC50) is 4.7 nM.

`CCc1cccc([C@@H](Oc2ccc3c(cnn3-c3ccc(F)cc3)c2)[C@H](C)NC(=O)CO)c1` [Example 23, N-[(1R,2S)-1-(3-ethylphenyl)-1-[1-(4-fluorophenyl)indazol-5-yl]oxy-propan-2-yl]-2-hydroxy-acetamide]: the half-inhibitory concentration (IC50) was 3.2 nM. Consider `Cc1cccc([C@@H](Oc2ccc3c(cnn3-c3ccc(F)cc3)c2)[C@H](C)NC(=O)C(F)(F)F)c1` [Example 24, 2,2,2-trifluoro-N-[(1R,2S)-1-[1(4-fluorophenyl)indazol-5-yl]oxy-1-(3-methylphenyl)propan-2-yl]acetamide], for which the IC50 came out at 3.2 nM. As for `CCSCc1ccc([C@@H](Oc2ccc3c(cnn3-c3ccc(F)cc3)c2)[C@H](C)NC(=O)C(F)(F)F)cc1` [Example 25, N-[(1R,2S)-1-[4-(ethylsulfanylmethyl)phenyl]-1-[1-(4-fluorophenyl)indazol-5-yl]oxy-propan-2-yl]-2,2,2-trifluoro-acetamide], the half-maximal inhibitory concentration (IC50) came out at 11 nM. As to `CC[S+]([O-])Cc1ccc([C@@H](Oc2ccc3c(cnn3-c3ccc(F)cc3)c2)[C@H](C)NC(=O)C(F)(F)F)cc1` (stereo partly drawn) [Example 26, N-[(1R,2S)-1-[4-(ethylsulfinylmethyl)phenyl]-1-[1-(4-fluorophenyl)indazol-5-yl]oxy-propan-2-yl]-2,2,2-trifluoro-acetamide], the half-maximal inhibitory concentration (IC50) was determined as 5.9 nM. The result for `CCSCc1ccc([C@@H](Oc2ccc3c(cnn3-c3ccc(F)cc3)c2)[C@H](C)NC(=O)CO)cc1` [Example 27, N-[(1R,2S)-1-[4-(ethylsulfanylmethyl)phenyl]-1-[1-(4-fluorophenyl)indazol-5-yl]oxy-propan-2-yl]-2-hydroxy-acetamide] reads 3.2 nM; that for `C[C@H](NC(=O)CCCN)[C@H](Oc1ccc2c(cnn2-c2ccc(F)cc2)c1)c1ccccc1` [Example 28, 4-Amino-N-[(1R,2S)-1-[1-(4-fluorophenyl)indazol-5-yl]oxy-1-phenyl-propan-2-yl]butanamide], 25 nM. Turning to `COCC(=O)N[C@@H](C)[C@H](Oc1ccc2c(cnn2-c2ccc(F)cc2)c1)c1ccccc1` [Example 31, N-[(1R,2S)-1-[1-(4-fluorophenyl)indazol-5-yl]oxy-1-phenyl-propan-2-yl]-2-methoxy-acetamide], the IC50 came out at 2.8 nM. Turning to `C[C@H](NC(=O)Cc1ccccc1)[C@H](Oc1ccc2c(cnn2-c2ccc(F)cc2)c1)c1ccccc1` [Example 33, N-[(1R,2S)-1-[1-(4-fluorophenyl)indazol-5-yl]oxy-1-phenyl-propan-2-yl]-2-phenyl-acetamide], the IC50 came out at 18 nM. The result for `CC(=O)OCC(=O)N[C@@H](C)[C@H](Oc1ccc2c(cnn2-c2ccc(F)cc2)c1)c1ccccc1` [Example 34, [(1R,2S)-1-[1-(4-fluorophenyl)indazol-5-yl]oxy-1-phenyl-propan-2-yl]carbamoylmethyl acetate] reads 2.4 nM; that for `COC(=O)C(=O)N[C@@H](C)[C@H](Oc1ccc2c(cnn2-c2ccc(F)cc2)c1)c1ccccc1` [Example 35, Methyl [(1R,2S)-1-[1-(4-fluorophenyl)indazol-5-yl]oxy-1-phenyl-propan-2-yl]carbamoylformate], 2.1 nM.

As for `C[C@H](NC(=O)C(=O)O)[C@H](Oc1ccc2c(cnn2-c2ccc(F)cc2)c1)c1ccccc1` [Example 36, [(1R,2S)-1-[1-(4-fluorophenyl)indazol-5-yl]oxy-1-phenyl-propan-2-yl]carbamoylformic acid], the 50% inhibitory concentration (IC50) is 10 nM. For the molecule `CC(C)C(=O)N[C@@H](C)[C@H](Oc1ccc2c(cnn2-c2ccc(F)cc2)c1)c1ccccc1` [Example 37, N-[(1R,2S)-1-[1-(4-fluorophenyl)indazol-5-yl]oxy-1-phenyl-propan-2-yl]-2-methyl-propanamide], the IC50 was determined as 2.4 nM. Under `C[C@H](NC(=O)CCl)[C@H](Oc1ccc2c(cnn2-c2ccc(F)cc2)c1)c1ccccc1` [Example 38, 2-Chloro-N-[(1R,2S)-1-[1-(4-fluorophenyl)indazol-5-yl]oxy-1-phenyl-propan-2-yl]acetamide] stands 2.4 nM; under `C[C@H](NC(=O)C(Cl)Cl)[C@H](Oc1ccc2c(cnn2-c2ccc(F)cc2)c1)c1ccccc1` [Example 39, 2,2-Dichloro-N-[(1R,2S)-1-[1-(4-fluorophenyl)indazol-5-yl]oxy-1-phenyl-propan-2-yl]acetamide], 6.4 nM; under `C[C@H](NC(=O)C(Cl)(Cl)Cl)[C@H](Oc1ccc2c(cnn2-c2ccc(F)cc2)c1)c1ccccc1` [Example 40, 2,2,2-Trichloro-N-[(1R,2S)-1-[1-(4-fluorophenyl)indazol-5-yl]oxy-1-phenyl-propan-2-yl]acetamide], 3.4 nM. Under `CCCC(=O)N[C@@H](C)[C@H](Oc1ccc2c(cnn2-c2ccc(F)cc2)c1)c1ccccc1` [Example 41, N-[(1R,2S)-1-[1-(4-fluorophenyl)indazol-5-yl]oxy-1-phenyl-propan-2-yl]butanamide] stands 2.6 nM. The result for `C[C@H](NC(=O)C1CCC1)[C@H](Oc1ccc2c(cnn2-c2ccc(F)cc2)c1)c1ccccc1` [Example 43, N-[(1R,2S)-1-[1-(4-fluorophenyl)indazol-5-yl]oxy-1-phenyl-propan-2-yl]cyclobutanecarboxamide] reads 2.2 nM; that for `C[C@H](NC(=O)C(F)F)[C@H](Oc1ccc2c(cnn2-c2ccc(F)cc2)c1)c1ccccc1` [Example 44, 2,2-Difluoro-N-[(1R,2S)-1-[1-(4-fluorophenyl)indazol-5-yl]oxy-1-phenyl-propan-2-yl]acetamide], 2.7 nM; that for `C[C@H](NC(=O)CF)[C@H](Oc1ccc2c(cnn2-c2ccc(F)cc2)c1)c1ccccc1` [Example 45, 2-Fluoro-N-[(1R,2S)-1-[1-(4-fluorophenyl)indazol-5-yl]oxy-1-phenyl-propan-2-yl]acetamide], 2.6 nM. For `CCc1ccc([C@@H](Oc2ccc3c(cnn3-c3ccc(F)cc3)c2)[C@H](C)NC(=O)C(F)(F)F)cc1` [Example 46, N-[(1R,2S)-1-(4-ethylphenyl)-1-[1-(4-fluorophenyl)indazol-5-yl]oxy-propan-2-yl]-2,2,2-trifluoro-acetamide], the concentration for half-maximal inhibition (IC50) was determined as 3.4 nM. The result for `C[C@H](NC(=O)C(F)Cl)[C@H](Oc1ccc2c(cnn2-c2ccc(F)cc2)c1)c1ccccc1` (stereo partly drawn) [Example 47, 2-Chloro-2-fluoro-N-[(1R,2S)-1-[1-(4-fluorophenyl)indazol-5-yl]oxy-1-phenyl-propan-2-yl]acetamide] reads 2.5 nM; that for `C[C@H](O)C(=O)N[C@@H](C)[C@H](Oc1ccc2c(cnn2-c2ccc(F)cc2)c1)c1ccccc1` [Example 48, (2S)-N-[(1R,2S)-1-[1-(4-fluorophenyl)indazol-5-yl]oxy-1-phenyl-propan-2-yl]-2-hydroxy-propanamide], 2.9 nM. On to `CCc1ccc([C@@H](Oc2ccc3c(cnn3-c3ccc(F)cc3)c2)[C@H](C)NC(=O)CF)cc1` [Example 50, N-[(1R,2S)-1-(4-ethylphenyl)-1-[1-(4-fluorophenyl)indazol-5-yl]oxy-propan-2-yl]-2-fluoro-acetamide], for which the half-maximal inhibitory concentration (IC50) amounted to 2.9 nM. Under `CCc1ccc([C@@H](Oc2ccc3c(cnn3-c3ccc(F)cc3)c2)[C@H](C)NC(=O)C(C)C)cc1` [Example 51, N-[(1R,2S)-1-(4-ethylphenyl)-1-[1-(4-fluorophenyl)indazol-5-yl]oxy-propan-2-yl]-2-methyl-propanamide] stands 4.3 nM.
